Reference: patent US7666905B2, “Compositions comprising hepoxilin analogs and their use in the treatment of cancer” (priority 2002, dated 2010)

How the values were obtained:
[1] = system: K562 CML cells; assay: 3H-thymidine incorporation in K562 CML cells; assay type: cell-based, human; details: for effect on K562 cell growth: FIGS. 1-4
Method: Cell culture. Human leukemia K562 cells, obtained from the Hematology Department of the Hospital for Sick Children, were maintained as suspension cultures in RPMI 1640 medium containing 100 U/ml penicillin G, 100 μg/ml streptomycin, 10% (v/v) fetal bovine serum in a humidified atmosphere of 5% CO2 at 37° C. The ability of the cells to exclude Trypan Blue dye was used to assess cell viability.
Cells were seeded in 24 well dishes at a cell number of 5×10^4 cells/ml in starving medium (SM) of alpha Modified Eagle's Medium without fetal bovine serum (FBS) supplementation and incubated at 37° C. for 12 h. Tritiated thymidine ([^3H]-Thymidine; 25 Ci/mmol stock) was diluted in SM to a final activity of […]. The pharmacological agents tested were all diluted from their respective stocks to the desired concentration(s) with the tritiated SM. Cells receiving no drug treatments and cells treated with DMSO only were used as controls. SM was removed from the dishes, then treated with the various pharmacological agents in SM containing tritiated thymidine for 6 h at 37° C. PBT-3 was used at 2.8 μM in DMSO, (other than in dose response studies), I-BOP was used at 1.0 μM (in DMSO) and U46619 was used at 1.0 μM (in DMSO). Cells were trypsinized after 6 h and washed through Whatman GF-B/C membranes along with the supernatant. Dried membranes were deposited in scintillation vials with 8ml scintillation cocktail and the radioactivity present in the cells was counted with a liquid scintillation counter.
The effect of hepoxilin analogs on leukemia cells was examined using the CML K562 cell line. This cell line was derived from a human CML patient and is an accepted model of human chronic leukemia. The K562 cell line expresses the bcr/abl protein (Lozzio & Lozzio, 1975). It is relatively resistant to apoptosis (Martin et al., 1990), but ST1571 and other agents appear to control cell growth for a while before the cells overcome the drug effect (Weisberg & Griffin, 2000).

[2] = system: K562 cells; assay: 3H thymidine uptake in K562 cells after 2 days treatment, cell number reduction and culture without drug; assay type: cell-based, human; details: PBT analogues 28 μM, I-BOP and STI571 1 μM, then 3 days without compounds, FIG. 13
Method: K562 cells (3×10^5 cells/plate) were cultured for 2 days in 1% FBS/αMEM in the presence of 28 μM PBT-3 (∘) or 1 μM STI (●) and ^3H thymidine incorporation was determined. Untreated control cells (□) and cells treated with DMSO alone (▪) were also examined (test compounds were dissolved in DMSO). Results are shown in FIG. 12, Panel A. The cell number in all dishes was reduced to that observed after two days of PBT-3 treatment (7.5×10^3/ml) and the cells were subsequently cultured for 3 days in 10% FBS in the absence of the test compounds.
The hepoxilin analogs compare very favourably in efficacy with STI571.

[3] = system: K562 cells; assay: Nuclear fragmentation by Hoechst 33342 staining of K562 cells; assay type: cell-based, human; details: Hoechst 33342 dye, FIG. 5 Panel B; STI571 1 μM, I-BOP 1 μM
Method: Quantification of apoptosis and cell viability. Induction of apoptosis and loss of cell viability after treatment with PBT-3 were assessed by staining the cells with Hoechst 33342 dye. […] Pellets were suspended with 5 μg/ml of Hoechst 33342 dye for 10 minutes at room temperature. Micrographs of the DNA-stained cells were taken with a Zeiss Axiovert 100 TV video camera. Images were captured using Axiovision version 3.0.6 and processed using Photoshop 5.0. Apoptotic cells were identified based on nuclear fragmentation and chromatin condensation around the nucleus.
Nuclear fragmentation was assessed by direct microscopy of treated cells stained with Hoechst 33342 dye.

[4] = system: Akt; assay: Western blot of Akt phosphorylation in K562 cells; assay type: cell-based, human; details: FIG. 11
Method: (§1) Cells were seeded in 100 mm culture dishes at a cell count of 5×10^4 cells/ml in 10 ml of SM and incubated at 37° C. for 12 h. Drug treatments were: DMSO as control, 0.05 μM I-BOP in DMSO, 0.5 μM I-BOP with 2.8 μM PBT-3, or 2.8 μM PBT-3 in DMSO. These concentrations were chosen based on results generated from the cell proliferation studies using thymidine incorporation. Cells were treated with drugs as described above for 6 h. After 6 h, cells were washed with 1×PBS and scraped, pelleted by centrifugation (1500 rpm, 5 min, room temperature), and washed again and pelleted as above. 200 μl cell lysis buffer (20 mM Tris-d pH 7.4, 150 mM NaCl, 1 mM EDTA, 1 mM EGTA, 1% Tx-100, 2.5 mM […], 1 mM β-glycerophosphate, 1 mM […], 1 μg/ml leupeptin, and 1 mM PMSF) were added to resuspend each pellet followed by 30 minutes of incubation on ice. […] Protein concentration was determined using a BSA standard with a BCA protein assay kit, prior to Western blotting.
(§2) Aliquots of protein (40 μg) were heated to 90° C. in SDS sample load buffer for 5 minutes, then separated by SDS-PAGE on 10% gels and transferred to nitrocellulose membranes. […] Membranes were then washed 5× in TBS-T. Bound first antibodies were detected by HRP-anti-rabbit immunoglobulins at 1:1000 in 5% non-fat dry milk for 1 h at room temperature, washing 5× in TBS-T then with enhanced chemiluminscent autoradiography (ECL). […]

[5] = system: MDA-MB 231 breast cancer cells; assay: FACS analysis of breast cancer cell line MDA-MB 231; assay type: cell-based; details: FIG. 7
Method: (§3) Cells were seeded at 1×10^6 cells/ml and treated as above. Cells were scraped into 1×PBS, pelleted, washed, and repelleted as above. Cells were washed with PBS twice and scraped. The cells were pelleted by centrifugation at 1500 rpm, 5 min, at 23° C. and washed again. Cells were fixed with 50 μl PBS/HBSS with 2% calf serum and then with addition of 1 ml ice cold 80% ethanol. Samples were incubated on ice for 30 min and PBS/HBSS fixing was repeated and followed by adding 1 ml 70% ethanol. Centrifugation (1500 rpm, 5 min, room temperature) was performed to produce cell pellets that were resuspended by 250 μl of 0.1 mg/ml Propidium Iodide (Sigma) with 0.6% NP-40. 250 μl of 2 mg/ml RNAse was added and mixed well. Cells were incubated in the dark for 30 min at room temperature. Samples were then filtered through 85 μm Nitex mesh and the stained cells were analyzed on a flow cytometer of FACScan (Becton-Dickinson). The acquisition was done with 10,000 events per sample. The CellQuest (Becton-Dickinson) statistic analysis was performed in each individual experiment.

[6] = system: normal aortic smooth muscle cells; assay: FACS analysis of apoptosis in normal aortic smooth muscle cells; assay type: cell-based; details: FIG. 9
Method: as §3

[7] = system: Bcl-XL; assay: Western blot of Bcl-XL expression in K562 cells; assay type: cell-based, human; details: FIG. 11
Method: as §1, §2

[8] = system: K562 CML cells; assay: DNA fragmentation (laddering) by agarose gel electrophoresis in K562 cells; assay type: cell-based, human; details: PBT-3 2.8 μM, 24 or 72 hours, FIG. 5 Panel A
Method: Analysis of DNA fragmentation by gel electrophoresis. […] The samples were loaded on 2% agarose gel containing ethidium bromide (0.2 μg/ml). DNA fragments of known size were used as a reference marker. After electrophoresis at 25 V for 5 hours, the gels were photographed under trans-UV illumination.
Studies were carried out to determine if PBT-3 affected apoptosis in K562 CML cells. Cells were cultured for 24 or 72 hours in the presence of growth medium (control) or PBT-3 (2.8 μM). Apoptosis was examined by DNA laddering. Cultures were harvested, DNA was extracted with DNeasy (Qiagen) and samples were loaded on a 2% agarose gel containing 0.2 μg/ml ethidium bromide. A λ BstII DNA digest with DNA fragments of known size was used as a reference marker. After electrophoresis at 25V for 5 h, gels were photographed under trans-UV illumination.

[9] = system: 3T3 L1 adipocytes; assay: FACS analysis of apoptosis in normal 3T3 L1 adipocytes; assay type: cell-based; details: FIG. 10
Method: as §3

[10] = system: caspase-3; assay: Western blot of caspase-3 activation (cleavage to 17 kDa fragment) in K562 cells; assay type: cell-based, human; details: FIG. 14
Method: Western blot. […] Treatment was terminated by washing cells with ice-cold PBS buffer. Cell lysates were prepared in buffer containing 20 mM Tris-HCl pH 7.4, 150 mM NaCl, 1 mM EDTA, 1 mM EGTA, 1% Triton X-100, 2.5 mM sodium pyrophosphate, 1 mM β-glycerophosphate, 1 mM sodium orthovanadate, 1 mM PMSF and 1 μM leupeptin on ice for 60 minutes. The lysates were clarified by centrifugation at 15,000×g for 15 minutes at 4° C. Lysates were subjected to protein assay and kept at −80° C. 250 μg protein was immunoprecipitated with anti-cytochrome c antibody or anti-caspase-3 antibody coupled to protein A-agarose beads. After washing of the immunocomplexes with lysis buffer, SDS-PAGE sample loading buffer was added and the mixture was boiled for 5 minutes. After centrifugation, the supernatant was loaded onto 10-12% SDS-PAGE gel, and transferred to the Trans-Blot Nitrocellulose membrane (Bio-Rad). Protein bands on the nitrocellulose membranes were checked visually with Ponceau S-staining to assure equivalent protein loading/transfer comparing different samples. […] Bound antibodies were detected using enhanced chemilluminescence (ECL) kit and the membranes were exposed to Hyperfilm for ECL.

[11] = system: normal bone marrow cells; assay: FACS analysis of apoptosis in normal bone marrow cells; assay type: cell-based; details: FIG. 8
Method: as §3

| Compound | effect on K562 cell growth [1] | apoptotic effect (fragmentation of the nucleus and chromatin condensation) [3] | effect on phosphorylation of Akt [4] | effect on expression of the Bcl pathway (Bcl-XL) [7] | other results |
| --- | --- | --- | --- | --- | --- |
| O=C(O)CCC/C=C\C[C@@H]1[C@H](CNNC(=O)Nc2ccccc2)[C@H]2CC[C@@H]1O2 [SQ 29,548] | neither the thromboxane receptor agonists nor the thromboxane receptor antagonist affected K562 cell growth |  |  |  |  |
| CCCCC/C=C\CC1CC1/C=C/C(O)C/C=C\CCCC(=O)OC [PBT-2, 8(R)-hydroxy-11, 12-cyclopropyl-eicosa-5Z, 9E, 14Z-trienoic acid methyl ester] |  |  |  |  | effectiveness in inhibiting cell growth (rank among treatments) [2]: most effective treatment |
| CCCCC[C@H](O)/C=C/[C@@H]1[C@@H](C/C=C\CCCC(=O)O)[C@H]2CO[C@@H]1C2 [U46619] | neither the thromboxane receptor agonists nor the thromboxane receptor antagonist affected K562 cell growth |  |  |  |  |
| O=C(O)CCC/C=C\CC1C2CCC(O2)C1/C=C/C(O)COc1ccc(I)cc1 (stereo not drawn) [I-BOP, [1S-[1α,2α(Z),3β(1E, 3S*), 4α]]-7-[3-[3-hydroxy-4-(iodophenoxy)-1-butenyl]-7-oxabicyclo[2.2.1]hept-2-yl]-5-heptenoic acid, reference compound] | neither the thromboxane receptor agonists nor the thromboxane receptor antagonist affected K562 cell growth | No similar apoptotic effect |  |  |  |
| CCCCC/C=C\CC1CC1C(O)/C=C\C/C=C\CCCC(=O)OC [PBT-3, 10(S)-hydroxy-11,12-cyclopropyl-eicosa-5Z,8Z,14Z-trienoic acid methyl ester] | inhibited growth of K562 cells | produced apoptotic cells | blocked phosphorylation of Akt | essentially inactive | concentration of maximum effect on inhibition of K562 cell growth ([1]; FIG. 1): 1 µg/mL; synchronisation of cells (to Go phase) [5]: synchronisation effect; apoptotic effect on normal aortic smooth muscle cells [6]: no apoptotic effect; DNA fragmentation associated with apoptosis [8]: causes DNA fragmentation associated with apoptosis; apoptotic effect on normal (3T3 L1) adipocytes [9]: no apoptotic effect; time of caspase-3 activation (cleavage into a 17 kDa fragment) [10]: 6 h; apoptotic effect on normal bone marrow cells [11]: no apoptotic effect |
| Cc1ccc(NC(=O)c2ccc(CN3CCN(C)CC3)cc2)cc1Nc1nccc(-c2cccnc2)n1 [STI571, Imatinib, reference compound] |  |  | increased it | blocked the expression of the Bcl pathway (Bcl-XL) |  |
